Here are results for one compound from patent US9050294B2, “Treatment of neural diseases or conditions” (Royal Institution for the Advancement of Learning/McGill …, priority 2008, dated 2015).

“Also recorded” adds a separate entry of the source.

Data set [1] has as its system spinal cord injury (SCI) in BALB/c mice. The data set can be described thus: Oxidative stress markers (MDA, nitrotyrosine) in spinal cord after SCI, ELISA. Format: in vivo, mouse. To be noted: 3 dpi, vs control mice. The text has this: (§1) Fenretinide preparation and treatment.
Data set [2] relates to microglial cells. The data set can be described thus: Cell viability and cell de-attachment studies on microglial cells. Format: cell-based, mouse. Conditions: 0.625 and 1.25 μM.
Data set [3] relates to spinal cord injury (SCI) in BALB/c mice. Kind of data set: AA and DHA levels in plasma and spinal cord after spinal cord contusion (lipid analysis, GC/MS). To be noted: 5 mg/kg/day oral.
Procedure: Adult (8-10 weeks old) female BALB/c mice (Charles River Canada) were anaesthetized with ketamine:xylazine:acepromazine (50:5:1 mg/kg). After performing a laminectomy at the 11th thoracic vertebrae, the exposed spinal cord was contused using the Infinite™ Horizons Impactor device (Precision Scientific Instrumentation, Lexington, Ky.). Moderate injuries were made using a force of 50 kDynes and tissue displacements ranging between 400-600 μm (Ghasemlou et al. (2005) Exp. Neurol. 196: 9-17).
Fenretinide preparation and treatment. Fenretinide powder was resuspended in 95% ethanol under sterile conditions to generate a 2 μg/μL stock solution. This solution was incorporated into a daily liquid diet of Peptamen™ (Nestle Canada, Brampton, ON) at a dose of 5 mg/kg/day for oral consumption as described previously (Guilbault et al. (2008) Am J Respir Cell Mol Biol 38: 47-56). The suspension was protected from light and kept at 4° C. before treatment of the mice. One hour following surgery and for the subsequent three days, fenretinide was administered by gavage in two doses, each suspended in 300 μL of Peptamen™. Gavage was chosen as the method of drug delivery immediately after surgery due to the loss of appetite and reduced food intake during the first 48 h after injury. After day three, mice were fed the fenretinide/Peptamen™ mixture. At this point mice were separated into individual cages in order to ascertain the amount of food and drug consumed. Following day 3, the diet was administered every morning with careful monitoring of the quantity consumed by each mouse. More specifically, the daily fenretinide dose was incorporated into 12 ml of Peptamen™, which represents 80% of the daily mouse food consumption, to ensure 100% consumption. The food was given to the mice in the mid-morning. The diet for control animals was prepared and administered in the same fashion as the drug treatment; however, control animals received Peptamen™ with no fenretinide added but with an equivalent amount of ethanol.
(A) For SCI studies: in order to establish plasma kinetics, blood samples were taken from the saphenous vein at day 0, 1, 3, 7, 11, and 21 post-injury. On day 28, blood samples were obtained by intra-cardiac puncture. All blood samples were mixed with 10 μl of EDTA to prevent coagulation and centrifuged at 350×g for 7 minutes at 4° C. The plasma was then removed and lipids were extracted with chloroform-methanol (2:1 vol/vol) containing 1 mM butylated hydroxyanisole (BHA), as previously described (Folch et al. (1957) J Biol Chem 226: 497-509). The lipid fractions were dried under nitrogen and resuspended in heptane as previously described (De Sanctis (1991) Med Sci Res 19: 335-337). Phospholipids were identified by thin layer chromatography extraction. Diazomethane was used to esterify the released fatty acids and the esters were identified by GC/MS (Hewlett Packard 5880A, WCOT) capillary column (Supelco™-10, 35 m×0.5 mm, 1 μm thick) using commercial standards (Sigma-Aldrich, Oakville, ON, Canada). Total levels of DHA and AA as well as phospholipid-bound DHA, phospholipid-bound AA, malonyldialdehyde (MDA) and nitrotyrosine were assessed in both plasma and spinal cord samples.
The subject of data set [4] is SOD1^G93A transgenic mice. Kind of data set: Glial activation in L4 ventral horn (GFAP and Mac-2 immunohistochemistry). Conditions: L4, 130 days of age; p≦0.05. It is filed as in vivo, mouse. The method, then: (B) For ALS studies: Mice were deeply anaesthetized with a cocktail of ketamine (7.5 mg/ml) and xylazine (0.5 mg/ml) administered via intraperitoneal injection at a dose of 20 ml/kg of body weight. Animals were then sacrificed by transcardial perfusion with 4% paraformaldehyde in 0.1M phosphate buffered saline (PBS). The fourth lumbar spinal cord segment, identified by its contribution to the sciatic nerve was carefully removed, post-fixed for 1 hour in 4% paraformaldehyde solution and cryoprotected overnight in 30% sucrose in 0.1M PBS. […] Images were imported into SigmaScan™ Pro Image Measurement Software Version 5.0.0 (SPSS Inc., Chicago, Ill.) and activated astrocytes and microglia were quantified by exceeding an intensity threshold. […] Serial sections from a separate set were stained for Nissle body detection using cresyl violet staining and the number of motor neurons surviving in the ventral horn were quantified.
Immunohistochemistry was also performed on different serial sections from the same animals. […] Images of both ventral horns were captured every 300 μm and imported into SigmaScan™ Pro image quantification software. The area occupied by darkly stained cells was quantified and normalized for the total area.

Data set [5] deals with spinal cord injury (SCI) in BALB/c mice. Kind of data set: Locomotor recovery after SCI, Basso Mouse Scale (BMS) open-field test. It is filed as in vivo. The method, then: as §1
Locomotor recovery was evaluated in an open-field test using the Basso Mouse Scale (BMS) (Basso et al. (2006) J Neurotrauma 23: 635-659), which was specifically developed for locomotor testing after contusion injuries in mice. The BMS analysis of hindlimb movements and coordination was carried out by two independent trained assessors, and the consensus score taken. The final score is presented as mean±SEM. The BMS is a compressed scale with a maximum score of 9 as compared to the […] BBB scale for rats. Therefore small differences in the BMS can account for larger functional differences.

With `CC1=C(/C=C/C(C)=C/C=C/C(C)=C/C(=O)Nc2ccc(O)cc2)C(C)(C)CCC1` [fenretinide, all-trans-N-(4-hydroxyphenyl) retinamide], in data set [1], the “decrease of malonyldialdehyde (MDA) level in spinal cord” value was “about 2 fold” and the “decrease of nitrotyrosine level in spinal cord” value is “about 2 fold”. Also, the “toxic effects on the cells (cell viability, cell de-attachment)” value in data set [2] was “did not have any toxic effects”. Moreover, the “plasma docosahexaenoic acid (DHA) levels vs vehicle-treated mice” value in data set [3] (started 1 h after SCI, 3 to 28 dpi) is “concomitant increase; also recorded: significantly higher”. Further, the “plasma arachidonic acid (AA) levels vs vehicle-treated mice” value in data set [3] (started 1 h after SCI, day 1 to 28 after SCI) is reported as “significant reduction”. For the same compound, in data set [3] (3 dpi), the “AA level in injured spinal cord vs vehicle” value was “significant decrease” and the “DHA level in injured spinal cord vs vehicle” value was “increase”. Besides, in data set [4], the “GFAP staining of ventral horn: sham-treated mice greater than fenretinide-treated” value is reported as “more than 50%” and the “Mac-2 positive stained area: control animals more than fenretinide-treated” value was 60%. The compound further displayed a BMS score in data set [5] (5 mg/kg/day oral started 1 h after SCI, 28 dpi, 9-point scale, vehicle 4.6) of 5.8. Moreover, the “mean BMS subscore higher than vehicle-treated mice” value in data set [5] (5 mg/kg/day oral, 28 dpi) is listed as 2.2 points. In data set [5] (5 mg/kg/day oral, day 7 to 28 after SCI), the “fine locomotor skills (BMS subscores) vs vehicle” value is reported as “significant improvement”. In addition, the “locomotor function (BMS) vs vehicle-treated mice” value in data set [5] (5 mg/kg/day oral, significant from day 7 after SCI) is recorded as “improved locomotor function; also recorded: significantly enhanced motor skills”.
